Bounds are passed on as bounds.

For series [1], the target named is T1, αvβ3 (Homo sapiens, UniProt P05106+P06756).
T1 construct: endogenous in cells; host or cells: SK-Mel-2 melanoma cells
In words: Sk-Mel-2 cell adhesion to immobilised fibronectin (cell-binding assay, MTT readout). The following applies: Sk-Mel-2 adhesion to Fn, mean ± SD. The format is cell-based. The procedure: First, 96-well plates (Corning, VWR) were coated overnight at 4 °C with 0.5 μg/well fibronectin (Sigma). SK-Mel-2 cells were trypsinised, washed and resuspended in RPMI medium only at 10^5 cells/mL. Cells (100 µL/well) were treated with compound (DMSO final concentration 0.1%) at the indicated concentration for 4 hrs on a rotary shaker. Plates were washed (3 × PBS) and blocked with PBS/5% BSA for 2 hrs at 37 °C prior to adding the cells. Cells were incubated on the plates at 37 °C in a humidified chamber with 5% CO2 for 1 hr. The plates were washed 3× with PBS and a 200 µL/well RPMI medium containing 10% FCS added. The plates were incubated overnight at 37 °C as above. Finally, 0.5 mg/mL of 3-(4,5-dimethythiazol-2-yl)-2,5-diphenyl tetrazolium bromide (MTT) was added to each well and the plates incubated for a further 4 h. The medium was removed, and the insoluble formazan dissolved in 150 µL of DMSO. Absorbance was measured at 540 nm using a Thermo Multiskan EX (Thermofisher, UK)and Ascent Software (v2.6). Total binding was determined based on controls lacking any compounds (100% binding) in fibronectin-coated wells and uncoated wells blocked with BSA (0% binding) and corrected for background (no cells, fibronectin-coated).
As an initial test of anti-β3 activity, the ability of compounds to inhibit the adhesion of melanoma cells expressing high levels of αvβ3 and low levels of other RGD-binding integrins such as αvβ5 and α5β1 to immobilised fibronectin was evaluated.
Cells were seeded onto precoated plates in the presence or absence of putative antagonists and the number of adherent cells quantified colorimetrically.

The subject of series [2] is Sk-Mel-2. As to the kind of experiment: in vitro. The series is classed as cell-based, human. The procedure: Before use in cell-based assays of integrin function, the effect of compounds on cell proliferation was tested using the MTT assay to avoid adhesion results being confounded by cell death (Supplementary Table S1). The effect of compounds on cell adhesion was then initially tested at a single, nontoxic concentration to identify active antagonists for further characterisation; those displaying a promising activity in the adhesion assay were tested at a wider range of concentrations to determine the IC50 (Table 2). […] Nevertheless, it is a cost-effective initial screening method. page 4: Table S1. Cytotoxicity of compounds on the cell lines used in the functional assays (measured by MTT assay). Cells (2000 cells/well for Sk-Mel-2; 1 x 10^4 cells/mL for M14) were incubated for 96 hours at 37 ° C in a total volume of 200 μL/well (180 μL medium + 20 μ L test compound solution). After 96 hours, the medium was replaced by fresh medium containing 0.5 mg/ml (end conc.) MTT per well, incubated for 4 h then the plate processed and read as described in the main text. […] ICT9053 41 naphthyridine 1 NHSO2Mes H Ester 52.6 ± 0.6 72.7 ± 9.8 ICT9065 42 naphthyridine 1 H H Ester >100 - ICT9079 43 naphthyridine 0 NHSO2Mes H Ester ~100 - ICT9061 44 naphthyridineT 1 NHSO2Mes H Ester 46.8 ± 10.7 - […] Ester 65.4 ± 11.1 >100 […] Ester 9.6 ± 5.7 >100 […] Ester >100 - […] Ester 54.6 ± 11.0 - […] Ester >5 3.3 ± 0.8 […] ICT9028 51 pyrimidine 2 NHSO2Ph H Acid >100 - ICT9031 52 pyrimidineT 1 NHSO2Mes H Acid >100 - ICT9090 53 pyrimidineT 2 NHSO2Mes H Acid >50 - ICT9029 54 pyrimidineT 2 NHSO2Ph H Acid >100 - ICT9063 55 naphthyridine 1 NHSO2Mes H Acid 61.7 ± 2.8 - […] Acid 45.5 ± 7.9 >100 […] 42.5 ± 1.8 >50 RGDS >50 - T trans configuration of cyclobutane sidechains.

The target of series [3] is T2, αIIbβ3 (Homo sapiens, UniProt P05106+P08514).
T2 construct: purchased Sigma
T2 sequence (P08514 32-887 limits assumed): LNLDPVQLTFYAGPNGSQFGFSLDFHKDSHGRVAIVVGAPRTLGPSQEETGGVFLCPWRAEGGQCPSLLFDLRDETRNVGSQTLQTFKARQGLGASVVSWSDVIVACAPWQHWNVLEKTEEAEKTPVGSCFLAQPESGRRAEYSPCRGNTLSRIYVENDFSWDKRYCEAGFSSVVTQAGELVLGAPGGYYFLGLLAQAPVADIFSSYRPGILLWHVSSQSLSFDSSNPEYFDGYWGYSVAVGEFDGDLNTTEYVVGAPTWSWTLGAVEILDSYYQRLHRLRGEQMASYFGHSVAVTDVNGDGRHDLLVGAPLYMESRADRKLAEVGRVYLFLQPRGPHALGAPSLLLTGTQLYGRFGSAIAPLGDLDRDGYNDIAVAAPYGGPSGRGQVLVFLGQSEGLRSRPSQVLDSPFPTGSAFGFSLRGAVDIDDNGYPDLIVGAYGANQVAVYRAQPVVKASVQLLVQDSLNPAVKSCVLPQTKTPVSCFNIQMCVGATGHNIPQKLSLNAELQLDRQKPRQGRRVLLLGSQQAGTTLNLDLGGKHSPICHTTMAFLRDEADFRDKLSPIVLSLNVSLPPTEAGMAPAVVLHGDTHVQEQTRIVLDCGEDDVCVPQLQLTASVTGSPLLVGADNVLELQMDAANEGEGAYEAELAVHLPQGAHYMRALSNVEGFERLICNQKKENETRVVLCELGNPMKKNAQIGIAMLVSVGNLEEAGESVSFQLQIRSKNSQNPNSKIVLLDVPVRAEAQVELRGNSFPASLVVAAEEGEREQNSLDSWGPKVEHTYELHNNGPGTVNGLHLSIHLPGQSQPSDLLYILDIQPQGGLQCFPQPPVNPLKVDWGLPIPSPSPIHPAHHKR
T2 sequence (P08514 891-1039 partner limits assumed): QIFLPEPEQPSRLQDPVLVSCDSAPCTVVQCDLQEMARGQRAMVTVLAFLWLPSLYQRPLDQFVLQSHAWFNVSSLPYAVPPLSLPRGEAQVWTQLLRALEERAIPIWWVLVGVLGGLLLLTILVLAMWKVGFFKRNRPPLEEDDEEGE
T2 sequence (P05106 27-788): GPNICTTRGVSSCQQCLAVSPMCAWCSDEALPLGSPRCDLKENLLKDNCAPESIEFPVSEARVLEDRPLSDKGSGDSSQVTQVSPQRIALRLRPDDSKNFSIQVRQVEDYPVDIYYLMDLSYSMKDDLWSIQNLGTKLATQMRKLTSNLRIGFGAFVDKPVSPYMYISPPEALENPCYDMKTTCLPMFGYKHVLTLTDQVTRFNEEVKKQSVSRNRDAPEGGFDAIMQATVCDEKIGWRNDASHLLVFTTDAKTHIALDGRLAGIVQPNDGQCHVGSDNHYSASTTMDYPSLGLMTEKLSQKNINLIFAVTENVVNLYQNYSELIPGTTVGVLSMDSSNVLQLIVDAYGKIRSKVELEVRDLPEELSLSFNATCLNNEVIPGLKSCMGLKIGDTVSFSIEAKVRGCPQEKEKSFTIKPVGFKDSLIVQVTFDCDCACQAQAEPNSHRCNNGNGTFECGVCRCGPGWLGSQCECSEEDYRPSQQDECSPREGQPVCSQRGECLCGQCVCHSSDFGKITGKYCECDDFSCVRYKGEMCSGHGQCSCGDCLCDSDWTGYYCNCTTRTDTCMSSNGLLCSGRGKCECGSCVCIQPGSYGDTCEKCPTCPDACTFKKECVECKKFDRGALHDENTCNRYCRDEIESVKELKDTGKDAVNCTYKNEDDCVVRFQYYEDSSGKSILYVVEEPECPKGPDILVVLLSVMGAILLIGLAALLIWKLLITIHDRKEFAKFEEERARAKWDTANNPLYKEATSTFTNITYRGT
As to the kind of experiment: αIIbβ3/fibrinogen purified protein binding ELISA. The following applies: mean ± SD; for IC50: read-out: IC50 (αIIbβ3/Fg). The procedure: ELISA assays were performed as previously described with minor modifications. Briefly, serial dilutions of compounds were prepared in dimethyl sulfoxide (DMSO). C8 Maxi Immuno modules (Fisher Scientific) were incubated overnight at 4 °C with 0.5 μg/well of fibrinogen (Sigma) in sterile phosphate buffered saline (PBS, 0.2 g/L KCl, 8.0 g/L NaCl, 0.2 KH2PO4, 1.15 g/L Na2HPO4, pH 7.4). All subsequent wash steps were performed using 25 mM Tris, pH 7.6, 150 mM NaCl, 1 mM MnCl2, 1 mg/mL BSA, and binding/inhibition was carried out in 25 mM Tris, pH 7.6, 150 mM NaCl, 1 mM MnCl2, 1 mM MgCl2, 1 mM CaCl2, 1 mg/mL BSA.
Wells were washed and blocked with a blocking solution (PBS, 0.1% Tween 20, 3% BSA) for 1 h at 37 °C. Compounds were added to the wells at indicated concentrations (final 0.5% DMSO) in the presence of 0.5 µg/well αIIbβ3 (Sigma) and incubated at room temp for 1 h. After 3 washes, primary anti-αIIb (1:200 dilution, Santa Cruz Biotech, Heidelberg, Germany) and antigoat–HRP (1:500 dilution, Dako, Agilent, Santa Clara, CA, USA) were added at room temp for 1 h. The wells were washed and incubated with 0.1 mg/mL tetra-methylbenzidine (Sigma) for 25 min and the reaction was stopped with 1N H2SO4 (100 μL/well). The absorbance was measured at 450 nm using a Multiscan Spectrum reader (Thermo Scientific, Thermofisher, UK) and SkanIT RE (v2.4.4.5) software. Results were plotted as percent binding vs. log concentration and IC50 values determined.
On the technique in general: In an ELISA, binding on a coated surface is turned into a signal by an enzyme label.

T1 sequence (P06756 31-889 limits assumed): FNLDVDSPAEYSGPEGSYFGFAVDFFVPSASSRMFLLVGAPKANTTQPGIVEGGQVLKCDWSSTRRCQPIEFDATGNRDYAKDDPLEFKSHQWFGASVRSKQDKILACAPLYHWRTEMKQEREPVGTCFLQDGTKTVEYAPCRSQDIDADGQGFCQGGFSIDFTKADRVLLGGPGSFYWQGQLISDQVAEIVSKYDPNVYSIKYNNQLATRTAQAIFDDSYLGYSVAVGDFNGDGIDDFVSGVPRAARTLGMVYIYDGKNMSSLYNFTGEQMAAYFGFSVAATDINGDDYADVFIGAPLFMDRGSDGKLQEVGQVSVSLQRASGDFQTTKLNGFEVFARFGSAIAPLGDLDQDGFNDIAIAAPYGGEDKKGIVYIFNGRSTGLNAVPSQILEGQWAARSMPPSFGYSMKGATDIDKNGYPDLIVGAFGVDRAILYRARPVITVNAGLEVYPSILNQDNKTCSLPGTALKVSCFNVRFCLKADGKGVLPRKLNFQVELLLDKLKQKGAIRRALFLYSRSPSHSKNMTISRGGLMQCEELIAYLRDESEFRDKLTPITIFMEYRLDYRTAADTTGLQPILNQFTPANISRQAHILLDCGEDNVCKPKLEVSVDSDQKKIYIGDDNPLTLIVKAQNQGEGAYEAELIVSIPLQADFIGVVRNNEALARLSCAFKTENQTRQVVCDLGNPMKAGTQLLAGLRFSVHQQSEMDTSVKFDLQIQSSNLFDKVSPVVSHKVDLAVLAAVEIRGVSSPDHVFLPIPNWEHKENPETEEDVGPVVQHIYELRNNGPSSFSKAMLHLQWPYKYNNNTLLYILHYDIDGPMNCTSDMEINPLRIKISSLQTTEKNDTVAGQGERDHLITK
T1 sequence (P06756 891-1048 partner limits assumed): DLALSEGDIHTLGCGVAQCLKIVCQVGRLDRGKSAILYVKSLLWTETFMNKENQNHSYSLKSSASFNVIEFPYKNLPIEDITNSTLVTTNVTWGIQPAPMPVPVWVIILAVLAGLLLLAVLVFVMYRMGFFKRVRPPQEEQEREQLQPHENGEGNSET
T1 sequence (P05106 27-788): as the sequence (P05106 27-788) above

Turning to `O=C(O)[C@H](CNC(=O)[C@H]1C[C@@H](CCCNc2ncccn2)C1)NS(=O)(=O)c1ccccc1` [ICT9029 54, (S)-2-(phenylsulfonamido)-3-((1s,3s)-3-(3-(pyrimidin-2-ylamino)propyl)cyclobutanecarboxamido)propanoic acid], in series [1], the “Adhesion % Inhibition @ 50 μM” value is given as 42.5 ± 14.1% and the IC50 is over 50 µM. In series [2], this molecule displayed an IC50 of over 100 µM. For the same molecule, in series [3], the “% Inhibition (αIIbβ3/Fg) @ 50 μM” value was determined as 100 ± 6% and the IC50 worked out at 3.3 ± 3.3 µM.

As for `Cc1cc(C)c(S(=O)(=O)N[C@@H](CNC(=O)C2CC(CCNc3ncccn3)C2)C(=O)O)c(C)c1` (stereo partly drawn) [ICT9030 50, (S)-3-((1s,3r)-3-(2-(pyrimidin-2-ylamino)ethyl)cyclobutanecarboxamido)-2-(2,4,6-trimethylphenylsulfonamido)propanoic acid], in series [1], the “Adhesion % Inhibition @ 5 μM” value is reported as 4.5 ± 19.6%, the “Adhesion % Inhibition @ 50 μM” value is reported as 51 ± 9.0% and the IC50 was determined as 50 ± 7 µM. In addition, the IC50 in series [2] came to 90.2 ± 4.3 µM. In series [3], the “% Inhibition (αIIbβ3/Fg) @ 50 μM” value worked out at 91.2 ± 9.6% and the IC50 turned out to be 3.5 ± 1.9 µM.

In the case of `O=C(O)[C@H](CNC(=O)[C@H]1C[C@H](CCCNc2ncccn2)C1)NS(=O)(=O)c1ccccc1` [ICT9028 51, (S)-2-(phenylsulfonamido)-3-((1r,3r)-3-(3-(pyrimidin-2-ylamino)propyl)cyclobutanecarboxamido)propanoic acid], the “Adhesion % Inhibition @ 50 μM” value in series [1] came out at 31.8 ± 10.0%. Also, the IC50 in series [1] was over 50 µM; in series [2], over 100 µM; in series [3], 7.8 ± 2.8 µM. Besides, in series [3], the “% Inhibition (αIIbβ3/Fg) @ 50 μM” value turned out to be 93.6 ± 2.2%.

Consider `COC(=O)[C@H](CNC(=O)C1CC(CCc2ccc3cccnc3n2)C1)NS(=O)(=O)c1ccccc1` (stereo partly drawn) [ICT9054 40, (S)-methyl 3-((1r,3r)-3-(2-(1,8-naphthyridin-2-yl)ethyl)cyclobutanecarboxamido)-2-(phenylsulfonamido)propanoate], for which the “Adhesion % Inhibition @ 5 μM” value in series [1] was 48.7 ± 30.6%. The IC50 in series [2] stood at 65.2 ± 1.3 µM.

As for `COC(=O)[C@H](CNC(=O)[C@H]1C[C@@H](CCCNc2ncccn2)C1)NS(=O)(=O)c1c(C)cc(C)cc1C` [ICT9025 28, (S)-methyl 3-((1s,3s)-3-(3-(pyrimidin-2-ylamino)propyl)cyclobutanecarboxamido)-2-(2,4,6-trimethylphenylsulfonamido)propanoate], in series [1], the “Adhesion % Inhibition @ 5 μM” value is 0 ± 19.6%, the “Adhesion % Inhibition @ 50 μM” value is 92.5 ± 8.1% and the IC50 turned out to be 38 ± 11 µM. Further, the IC50 in series [2] is 55.3 ± 1.6 µM. Further, in series [3], the “% Inhibition (αIIbβ3/Fg) @ 50 μM” value is reported as 35.0 ± 11.3% and the IC50 was over 100 µM.

Turning to `COC(=O)[C@H](CNC(=O)[C@H]1C[C@@H](CCCNc2ncccn2)C1)NS(=O)(=O)c1ccccc1` [ICT9026 29, (S)-methyl 2-(phenylsulfonamido)-3-((1s,3s)-3-(3-(pyrimidin-2-ylamino)propyl)cyclobutanecarboxamido)propanoate], the IC50 in series [2] is over 100 µM. Further, in series [3], the “% Inhibition (αIIbβ3/Fg) @ 50 μM” value amounted to 31.6 ± 10.7%.

For the molecule `COC(=O)CCNC(=O)C1CC(CCc2ccc3cccnc3n2)C1` (stereo not shown) [ICT9065 42, Methyl 3-((1r,3s)-3-(2-(1,8-naphthyridin-2-yl)ethyl)cyclobutanecarboxamido)propanoate], the IC50 in series [2] is over 100 µM.

Consider `COC(=O)[C@H](CNC(=O)[C@H]1C[C@H](CCNc2ncccn2)C1)NS(=O)(=O)c1c(C)cc(C)cc1C` [ICT9024 27, (S)-methyl 3-((1r,3s)-3-(2-(pyrimidin-2-ylamino)ethyl)cyclobutanecarboxamido)-2-(2,4,6-trimethylphenylsulfonamido)propanoate], for which, in series [1], the “Adhesion % Inhibition @ 5 μM” value was 39.4 ± 17.1%, the “Adhesion % Inhibition @ 50 μM” value worked out at 94.2 ± 4.1% and the IC50 stood at 13 ± 3 µM. The IC50 in series [2] is 55.9 ± 4.9 µM. For the same molecule, in series [3], the “% Inhibition (αIIbβ3/Fg) @ 50 μM” value was 33.5 ± 2.8% and the IC50 came out at 50 ± 5 µM.

In the case of `COC(=O)[C@H](CNC(=O)C1CC(Cc2ccc3c(n2)NCCC3)C1)NS(=O)(=O)c1c(C)cc(C)cc1C` (stereo partly drawn) [ICT9080 48, (S)-methyl 3-((1s,3r)-3-((5,6,7,8-tetrahydro-1,8-naphthyridin-2-yl)methyl)cyclobutanecarboxamido)-2-(2,4,6-trimethylphenylsulfonamido)propanoate], the “Adhesion % Inhibition @ 5 μM” value in series [1] stood at 61.5 ± 11.1%. Further, the IC50 in series [2] is 54.6 ± 11 µM.

In the case of `COC(=O)[C@H](CNC(=O)C1CC(Cc2ccc3cccnc3n2)C1)NS(=O)(=O)c1c(C)cc(C)cc1C` (stereo partly drawn) [ICT9079 43, (S)-methyl 3-((1s,3r)-3-((1,8-naphthyridin-2-yl)methyl)cyclobutanecarboxamido)-2-(2,4,6-trimethylphenylsulfonamido)propanoate], in series [1], the “Adhesion % Inhibition @ 5 μM” value is 33.5 ± 26.2%. The IC50 in series [2] was about 100 µM.

For `COC(=O)[C@@H](CNC(=O)[C@H]1C[C@@H](CCCNc2ncccn2)C1)NS(=O)(=O)c1ccccc1` [ICT9021 25, (R)-methyl 2-(phenylsulfonamido)-3-((1r,3s)-3-(3-(pyrimidin-2-ylamino)propyl)cyclobutanecarboxamido)propanoate], the “Adhesion % Inhibition @ 50 μM” value in series [1] is recorded as 22.2 ± 22.3%. For the same molecule, in series [2], the IC50 is over 100 µM.

Consider `COC(=O)CCNC(=O)[C@H]1C[C@@H](CCc2ccc3c(n2)NCCC3)C1` [ICT9066 47, Methyl 3-((1r,3s)-3-(2-(5,6,7,8-tetrahydro-1,8-naphthyridin-2-yl)ethyl)cyclobutanecarboxamido)propanoate], for which the “Adhesion % Inhibition @ 50 μM” value in series [1] is listed as 22.4 ± 29.3%. Besides, the IC50 in series [2] is over 100 µM.

For the molecule `COC(=O)[C@H](CNC(=O)C1CC(CCc2ccc3cccnc3n2)C1)NS(=O)(=O)c1c(C)cc(C)cc1C` (stereo partly drawn) [ICT9061 44, (S)-methyl 3-((1s,3s)-3-(2-(1,8-naphthyridin-2-yl)ethyl)cyclobutanecarboxamido)-2-(2,4,6-trimethylphenylsulfonamido)propanoate], in series [1], the “Adhesion % Inhibition @ 5 μM” value is recorded as 32.4 ± 16.1%. In addition, the IC50 in series [2] came out at 46.8 ± 10.7 µM.

The values are drawn from article PMC10452181, “Synthesis and Biological Evaluation of Cyclobutane-Based β3 Integrin Antagonists: A Novel Approach to Targeting Integrins for Cancer Therapy” (Cancers, 2023).
